# Assay results taken from patent US20060153844A1, “Methods to trigger, maintain and manipulate immune responses by targeted administration of biological response modifiers into lymphoid organs” (priority 2004, published 2006).
# “Also recorded” adds a separate entry of the source.
# Key:
# [1] = test system: EL-4 target cells pulsed with the ovalbumin peptide epitope; assay: direct ex vivo CTL activity, 51Cr-release assay after OVA plus CpG; format: in vivo, C57BL/6 mice; settings: seven days later
# Protocol: The optimal intralymphatic dose of CpG for CTL induction was evaluated and compared to the optimal subcutaneous dose. C57BL/6 mice were injected with OVA alone or in combination with CpG ODN 1668pt. CD8 T cell responses were tested for direct ex vivo CTL activity seven days later using ^51Cr-release assays on EL-4 target cells pulsed with the ovalbumin peptide epitope (SEQ. ID. No. 2) at various effector to target cell ratios. Two dilution series of effector cells per mouse were performed. The means±SEM (n=3) are shown (see FIG. 4). […] The CTL activity was correlated with the frequency of CD8 lymphocytes staining positive for intracellular IFN-γ as measured by flow cytometry (data not shown).
# PLA2-specific IgG = PLA2-specific IgG by ELISA after PLA2 plus titrated CpG; format: in vivo, CBA/J mice
# Protocol: The doses of CpG required to enhance Th1-dependent IgG immune responses against an allergen, and whether intralymphatic administration could reduce the required dose of CpG were evaluated. PLA2, the major allergen from bee venom, was used as a model allergen. CBA/J mice were immunized biweekly with […] ODN-1668pt together with 0.1 μg of PLA2 either intralymphatically (A) or subcutaneously (B). Three weeks after the third injection, sera of mice were collected and PLA2-specific IgG was determined by ELISA (FIG. 9). Values represent means and standard deviations obtained from three mice per group. One representative of two similar experiments is shown.
# DCs = assay: activation of lymph node DCs, up-regulation of CD80 and CD86 (flow cytometry); format: in vivo, C57BL/6 mice
# Protocol: To assess CpG-induced activation of professional APCs, C57BL/6 mice received titrated amounts of CpG ODN 1668pt either subcutaneously by injection into the inguinal region or by direct injection into the inguinal lymph node. After one day the inguinal lymph nodes were collected and DCs were isolated by Collagenase D digestion and positive isolation using anti-CD11c magnetic beads. Activation of DCs was assessed by measuring up-regulation of CD80 and CD86 (FIGS. 3A and B). Values represent the mean fluorescence intensity (MFI) measured by flow cytometry. As control, mice were immunized i.ln. with saline solution. Lymph node cells pooled from three mice per group were used for the analysis. At least 1.5×10^4 CD11c^+ cells were acquired per condition. […] Note that an intralymphatic control injection with saline induced slight upregulation of CD80 and CD86. This may be explained by the physical lymph node damage produced by the needle. Thus, although both sites of injection are very close to each other, direct intralymphatic administration reduced the dose of CpG that is necessary for DC maturation by 10-50 fold.
# splenocyte = settings: mouse, in vivo, sc
# Protocol: C57BL/6 mice were treated with different doses of CpG and euthanized 8 days later for analysis of the spleen. […] The means±SEM (n=3) are shown. […] The means±SEM (n=3) are shown.
# [2] = test system: CD4 or CD8 positive lymphocytes; assay: intracellular IFN-γ in spleen CD4 and CD8 T cells by flow cytometry; format: in vivo, CBA/J mice; settings: two weeks after further boost of PLA2 and adjuvant; percentage and absolute number
# Protocol: Two weeks later spleen cells were isolated, and analysed directly for intracellular IFN-γ by flow cytometry (FIG. 11) or analyzed for IFN-γ, IL-4 and IL-10 secretion by ELISA after four days cultivation with 10 μg/ml PLA2 (FIG. 12). For FIG. 11, intracellular IFN-γ was measured by flow cytometry after four hours stimulation of cells with PdBu and ionomycin (both at 500 ng/ml) in the presence of brefeldin A (10 μg/ml). The cells were then incubated with anti-CD16/CD32 for Fc-recptor blocking and stained on ice and in PBS/FCS 2% with fluorescent-labelled Abs against CD4, CD8 and CD44 (all Abs from BD Biosciences (Franklin Lakes, N.J.). Cells were subsequently fixed with 4% paraformaldehyde and permeabilised with 0.1% Nonidet P-40 before staining with Ab against IFN-γ. Four-color cytometry were performed on a FACSCalibur flow cytometer (BD Biosciences, San Jose, Calif.). Cells were gated on CD4 or CD8 positive lymphocytes and the results expressed as means (±S.D.) for three mice, as percent of T-cell subset (A) or as absolute numbers in the spleen (B). One representative out of two immunization experiments is shown. […] Supernatants were collected after 96 hours incubation and IL-4, IL-10 and IFN-γ concentrations determined by ELISA from R&D Systems (Abingdon, United Kingdom). […]
# [3] = test system: PLA2-specific IgG2a and IgG1 antibodies; assay: anti-PLA2 IgG2a, IgG1 and IgE in sera after intralymphatic PLA2 plus TLR ligand; format: in vivo, CBA/J mice; settings: for kinetics of the antibody production (time of maximum titers): i.ln. with 0.1 μg PLA2, sera over 13 weeks; for anti-PLA2 antibody isotypes induced (IgG2a, IgG1): i.ln. with 0.1 μg PLA2, three injections; for sero-conversion: seven weeks after the first and three weeks after last injection, i.ln. with 0.1 μg PLA2
# Protocol: The compounds were mixed within an hour before injection into the inguinal lymph node.
# The sera were obtained over 13 weeks and analyzed by ELISA for anti-PLA2 IgG2a (FIG. 10A) and IgG1 (FIG. 10B). The ratio of IgG2a to IgG1 titers was calculated as a measure for Th1/Th2 immune response balance (FIG. 10C). […] Pre-immunization levels of anti-PLA2 antibodies were measured on sera from five mice taken the day before first injection.
# splenocytes = assay: IFN-γ, IL-4 and IL-10 secretion of splenocytes cultured with PLA2 (ELISA); format: in vivo, CBA/J mice; settings: for IFN-γ secreted (ELISA): versus LPS or 3M003 P<0.01
# Protocol: Two weeks later spleen cells were isolated, and analysed directly for intracellular IFN-γ by flow cytometry (FIG. 11) or analyzed for IFN-γ, IL-4 and IL-10 secretion by ELISA after four days cultivation with 10 μg/ml PLA2 (FIG. 12). For FIG. 11, intracellular IFN-γ was measured by flow cytometry after four hours stimulation of cells with PdBu and ionomycin (both at 500 ng/ml) in the presence of brefeldin A (10 μg/ml). The cells were then incubated with anti-CD16/CD32 for Fc-recptor blocking and stained on ice and in PBS/FCS 2% with fluorescent-labelled Abs against CD4, CD8 and CD44 (all Abs from BD Biosciences (Franklin Lakes, N.J.). Cells were subsequently fixed with 4% paraformaldehyde and permeabilised with 0.1% Nonidet P-40 before staining with Ab against IFN-γ. Four-color cytometry were performed on a FACSCalibur flow cytometer (BD Biosciences, San Jose, Calif.). Cells were gated on CD4 or CD8 positive lymphocytes and the results expressed as means (±S.D.) for three mice, as percent of T-cell subset (A) or as absolute numbers in the spleen (B). One representative out of two immunization experiments is shown. For FIG. 12, after homogenisation of spleens and lysis of red blood cells, 5×10^5 splenocytes were cultured with […] PLA2 protein in 200 μl IMDM (Gibco) supplemented with L-glutamine (4 mM), FCS (10%), mercaptoethanol (75 μM), as well as streptomycin and ampicillin. Supernatants were collected after 96 hours incubation and IL-4, IL-10 and IFN-γ concentrations determined by ELISA from R&D Systems (Abingdon, United Kingdom). Cytokine concentrations in supernatants as determined by ELISA after subtraction of spontaneous cytokine secretion was determined upon in vitro stimulation with an irrelevant antigen (ovalbumin). Statistical differences between the different groups were indicated when significant (P<0.01). One representative out of two immunization experiments is shown.
# [4] = of the 17 patients receiving IL-12 in the phase II study; cited from earlier work
# CD8+ T cell population = assay: tetramer and CD8 double staining after intranodal Melan-A peptide plus BRM; format: in vivo; settings: for immune response by tetramer staining: intranodal Melan-A peptide alone, plus 0.1 nmole CpG ODN or plus 25 μg polyI:C, days 0, 3, 14 and 17
# Description: H-2 class I-negative, HLA-A2.1-transgenic (HHD-1) mice (Pascolo, S., et al., J Exp Med. 185:2043-2051, 1997 (which is incorporated herein in its entirety)) were housed under pathogen-free conditions and used for evaluation of the immunogenicity of HLA-A2.1-restricted human tumor-associated cytotoxic T lymphocyte (CTL) epitopes. Female mice 8-12 weeks of age were used for intralymphatic immunization and for isolation of splenocytes for in vivo cytotoxicity studies. […] A total of four rounds of injections were given, on days 0, 3, 14 and 17.
# The immune response was measured by tetramer and CD8 double staining of splenocytes from the immunized mice. Mononuclear cells isolated from peripheral blood after density centrifugation (Lympholyte Mammal, Cedarlane Labs) with HLA-A*0201 MART1 (SEQ. ID. No. 3)-PE MHC tetramer (Beckman Coulter) and FITC conjugated rat anti-mouse CD8a (Ly-2) monoclonal antibody (BD Biosciences). Data was collected using a BD FACS Calibur flow cytometer and analysed using Cellquest software by gating on the lymphocyte population and calculating the percent of tetramer^+ cells within the CD8^+ CTL population. The results (see FIG. 5) were expressed as means±SEM of % tetramer stained cells within the CD8+ T cell population (A), and with specific dot plot plots representative for each group (B). Splenocytes from naive transgenic mice were included as controls.
# [5] = test system: Human melanoma tumor target cells, 624.38 (Melan-A^+, HLA-A2^+); assay: in vivo clearance of human melanoma tumor cells from pulmonary tissue; design: species or system HHD-1 mice; settings: mice immunized intranodally as in Example 4, challenged i.v. with 624.38 cells
# Protocol: The effectiveness of CTL generated as described in Example 4 was assessed as in vivo clearance of tumor cells from pulmonary tissue in mice challenged with Melan-A^+ tumor cells. Human melanoma tumor target cells, 624.38 (Melan-A^+, HLA-A2^+) were cultured in RPMI medium supplemented with 10% fetal bovine serum (Hyclone), 0.1 mM non-essential amino acids, and 0.3 mg/mL L-glutamine in a 5% CO2 incubator at 37° C. The HLA-A2^− subclone, 624.28, was grown under the same conditions and served as a negative control. Specific targets were prepared by incubating 10^8 624.38 cells with 2.5 μM CFSE in PBS for 20 minutes (CFSE^hi) and 10^8 HLA-A2^−, 624.28 target controls were labelled with 0.25 μM CFSE (CFSE^lo). Each immunized HHD-1 mouse was intravenously injected in the tail vein with a mixture of 10^7 CFSE^hi 624.38 and 10^7 CFSE^lo 624.28 cells followed by an identical injection 3 hours later. Un-immunized HHD-1 mice were also injected and served as naïve controls. […] The mononuclear cells were then isolated by density centrifugation and CFSE positive cells were analysed by FACS. The in vivo specific lysis of human melanoma target cells in the lung was calculated by the following formula: [(1−% CFSE^hi/% CFSE^lo)−(1−% CFSE^hiControl/% CFSE^loControl)]
# [6] = test system: ^51Cr-labeled target cells (T2 cells); assay: standard cytotoxic assay after intranodal peptide plus polyI:C; format: in vivo, HHD-A2 transgenic mice; settings: 12.5 μg peptide+12.5 μg polyI:C per inguinal lymph node, day 0, 3, 14 and 17; targets pulsed with peptide or tumor cells
# Protocol: HHD-A2 transgenic mice (n=4/group) were immunized with various peptides (see Table 1) admixed with polyI:C, by direct inoculation into the inguinal lymph nodes (12.5 μg peptide+12.5 μg of adjuvant, in 25 μl of PBS/each inguinal lymph node at day 0, 3, 14 and 17). One week after the final administration, splenocytes were stimulated ex vivo with 10 μg/ml of peptide in presence of 5 U/ml of rIL-2 and tested in a standard cytotoxic assay, against ^51Cr-labeled target cells (T2 cells) uncoated or coated with cognate peptide, at various Effector:Target ratios. Alternatively, in the case of PSMA 288-297 epitope, cytotoxicity was measured against PSMA expressing human tumor cells (LNCap) cells coated or not with 10 μg/ml of MHC class I blocking antibody (W6/32). Cytotoxicity resulting from immunization with the NY-ESO-1 157-165 epitope was also assessed against 624.28 and 624.38 cells that had been transformed to express a GFP/NY-ESO-1 fusion protein.
substance,measurement,setting,value
"CpG ODN 1668pt: CpG ODN 1668pt (SEQ. ID. No. 1), unmethylated CpG oligodeoxynucleotide, TLR9 ligand (DNA TCCATGACGTTCCTGAATAAT; DNA, backbone not given here)",CTL activity,[1]; subcutaneous vaccination with OVA plus CpG,did not elicit CTL activity
same,CTL activity,[1]; vaccinated intralymphatically with OVA plus CpG,significant induction of cytotoxic CD8 T cells even at 0.01 nmol CpG
same,PLA2-specific antibody responses,"PLA2-specific IgG; intralymphatic, high CpG dose of 10 nmol",no antibody responses were detectable
same,PLA2-specific antibody titers,"PLA2-specific IgG; intralymphatic, low CpG doses of 0.1 and 0.01 nmol",highest antibody titers
same,"PLA2-specific IgG, adjuvant effect","PLA2-specific IgG; subcutaneously, CpG 0.1 and 0.01 nmol",an adjuvant effect was no longer detectable
same,PLA2-specific IgG titers,"PLA2-specific IgG; subcutaneously, CpG doses of 10 and 1 nmol with 0.1 μg PLA2",highest IgG titers
same,expression of CD80 and CD86 on DCs,"DCs; 10 and 1 nmol, regardless of the route, after one day",significantly enhanced expression of CD80 and CD86
same,reduction of the dose of CpG necessary for DC maturation,DCs; direct intralymphatic versus subcutaneous administration,10-50 fold
same,DC maturation,"DCs; low CpG doses of 0.1 and 0.01 nmol, i.ln. versus s.c.",only direct injection into the inguinal lymph node induced significant DC maturation
same,changes of B lymphocytes in spleen,splenocyte,Only moderate changes
same,relative amounts of CD4 and CD8 T cells as well as NK cells,splenocyte,substantially reduced in a dose-dependent manner
"CpG: phosphorothioate-modified CpG ODN 1826 (SEQ. ID. No. 10), TLR 9 ligand, Examples 8 and 9 (DNA TCCATGACGTTCCCTGACGTT; DNA, all phosphorothioate, methylation of C not given here)",IFN-γ producing CD8-positive and CD4-positive T cells,[2],strongest effect
same,serum concentration of IgG1 relative to the titers induced by LPS or PolyI:C,"[3]; geometrically, 10 and 13 weeks",30-50%
same,kinetics of the antibody production (time of maximum titers),[3],a delay in the IgG1 antibody production
same,"anti-PLA2 antibody isotypes induced (IgG2a, IgG1)",[3],induced IgG2a
same,IgG1 in seven-week sera,[3]; seven weeks after initiating immunization,hardly detectable
same,sero-conversion,[3],notable sero-conversion
same,IL-4 secretion,splenocytes; compared with 3M003 and PolyI:C (P<0.01) or LPS (P<0.05),significantly reduced IL-4 secretion
same,IL-10 production,splenocytes; splenocytes cultured with PLA2,the strongest IL-10 production
same,IFN-γ secreted (ELISA),splenocytes; splenocytes cultured with PLA2,highest amounts of IFN-γ
IL-12: co-stimulatory cytokine,patients died,[4],2 patients
same,patients hospitalized,[4],12 patients
"Melan-A peptide: Melan-A peptide (SEQ. ID. No. 3), A27L analogue of the A2-restricted Melan-A 26-35 epitope",immune response by tetramer staining,CD8+ T cell population,readily detectable response by tetramer staining; also recorded: not very effective in inducing a robust T cell population expansion
peptidoglycan,kinetics of the antibody production (time of maximum titers),[3],peak titers were delayed
same,"anti-PLA2 antibody isotypes induced (IgG2a, IgG1)",[3],induced predominantly IgG2a
polyriboinosinic polyribocytidylic acid [polyI:C],in vivo lysis of human melanoma target cells in the lung,[5],substantial lytic activity
same,immune response by tetramer staining,CD8+ T cell population,robust antigen specific response
same,"systemic acute phase reaction, mortality or morbidity at the dose used","CD8+ T cell population; intranodal, 0.1 nmole CpG ODN or 25 μg polyI:C",not associated with observed mortality or morbidity
same,kinetics of the antibody production (time of maximum titers),[3],maximum levels of antibodies within three weeks of the final boost injection
same,"anti-PLA2 antibody isotypes induced (IgG2a, IgG1)",[3],high antibodies titers of both IgG1 and IgG2a isotypes
same,sero-conversion,[3],notable sero-conversion
same,IFN-γ secreted (ELISA),splenocytes; splenocytes cultured with PLA2,highest amounts of IFN-γ
same,cytotoxic response,[6],triggered a specific cytotoxic response
